Test results from ChEMBL document CHEMBL1201862, “PubChem BioAssay data set” (2004).
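Following 48 hours of exposure in 96-well plates, responses at five concentrations were used to interpolate endpoints linearly. Abbreviation: GI50, concentration required for 50% inhibition of growth.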 The source made the active and inactive calls. No stated cut-off is given here; in the data, active = GI50 up to about 1.1 µM and inactive = higher.

Assays:
Assay in all cases: growth of human tumour cells (NCI), 48 h
[1] = system: T47D
[2] = system: A498
[3] = system: OVCAR-5
[4] = system: NCI-H23
[5] = system: CAKI-1
[6] = system: MDA-MB-231
[7] = system: TK-10
[8] = system: RXF 393
[9] = system: U-251
[10] = system: SR
[11] = system: RPMI-8226
[12] = system: MOLT-4
[13] = system: ACHN
[14] = system: KM12
[15] = system: NCI-H460
[16] = system: Hs-578T
[17] = system: SW-620
[18] = system: HOP-92
[19] = system: IGROV-1
[20] = system: HL-60

Compound	GI50 [1]	GI50 [2]	GI50 [3]	GI50 [4]	GI50 [5]	GI50 [6]	GI50 [7]	GI50 [8]	GI50 [9]	GI50 [10]	GI50 [11]	GI50 [12]	GI50 [13]	GI50 [14]	GI50 [15]	GI50 [16]	GI50 [17]	GI50 [18]	GI50 [19]	GI50 [20]
CCOC(=O)[C@]12C(=C(c3ccccc3)O[C@H]3C=CCC[C@H]31)C(=O)C(=O)N2c1ccccc1	> 100 µM (inactive)	> 100 µM (inactive)	> 100 µM (inactive)	> 100 µM (inactive)	> 100 µM (inactive)	> 100 µM (inactive)	> 100 µM (inactive)	> 100 µM (inactive)	13.4 µM (inactive)	17.7 µM (inactive)	19.8 µM (inactive)	21.4 µM (inactive)	> 100 µM (inactive)	37.7 µM (inactive)	> 100 µM (inactive)					
CSCCCNC(=O)c1csc(-c2csc(CCNC(=O)CNC(=O)CNC(=O)CNC(=O)OC(C)(C)C)n2)n1		> 100 µM (inactive)	> 100 µM (inactive)	> 100 µM (inactive)	> 100 µM (inactive)	> 100 µM (inactive)	> 100 µM (inactive)	> 100 µM (inactive)	> 100 µM (inactive)			> 100 µM (inactive)	> 100 µM (inactive)	> 100 µM (inactive)	> 100 µM (inactive)	> 100 µM (inactive)	> 100 µM (inactive)	> 100 µM (inactive)	> 100 µM (inactive)	
CN[C@@H]1C[C@H]2O[C@@](C)([C@@H]1OC)n1c3ccccc3c3c4c(c5c6ccccc6n2c5c31)C(=O)N[C@@H]4O		< 0.0129 µM (active)	0.015 µM (active)	0.0338 µM (active)		0.0137 µM (active)		< 0.0116 µM (active)	0.0456 µM (active)	0.0132 µM (active)	0.658 µM (active)	0.0259 µM (active)		0.0328 µM (active)	0.04 µM (active)	0.00454 µM (active)	0.0764 µM (active)			0.0877 µM (active)
N#C/C(=C1\OC(=O)C(c2ccc(Br)cc2)=C1O)c1ccc(Br)cc1		15.5 µM (inactive)	19.1 µM (inactive)	12.9 µM (inactive)	17.3 µM (inactive)		22.1 µM (inactive)	12 µM (inactive)	13.2 µM (inactive)	17.9 µM (inactive)	15.1 µM (inactive)	17.2 µM (inactive)	15.7 µM (inactive)	14.9 µM (inactive)	15.7 µM (inactive)		14.3 µM (inactive)	16.1 µM (inactive)	14.2 µM (inactive)	11.6 µM (inactive)
CC(=O)c1ccc2c(c1)oc(=O)n2CCN1CCCCC1		> 100 µM (inactive)	> 100 µM (inactive)	> 100 µM (inactive)	> 100 µM (inactive)	> 100 µM (inactive)	> 100 µM (inactive)	> 100 µM (inactive)	> 100 µM (inactive)	> 100 µM (inactive)	> 100 µM (inactive)	> 100 µM (inactive)	> 100 µM (inactive)	> 100 µM (inactive)	> 100 µM (inactive)	93.5 µM (inactive)	> 100 µM (inactive)		> 100 µM (inactive)	> 100 µM (inactive)
N#Cc1nc(-c2ccccn2)oc1N		> 100 µM (inactive)	> 100 µM (inactive)	> 100 µM (inactive)	> 100 µM (inactive)	> 100 µM (inactive)	> 100 µM (inactive)	> 100 µM (inactive)	> 100 µM (inactive)	> 100 µM (inactive)	> 100 µM (inactive)	> 100 µM (inactive)	> 100 µM (inactive)	> 100 µM (inactive)	> 100 µM (inactive)	> 100 µM (inactive)	> 100 µM (inactive)	> 100 µM (inactive)	> 100 µM (inactive)	> 100 µM (inactive)
COc1ccc(CN2CCC/C=C/CC(Cl)(Cl)C2=O)cc1		19.2 µM (inactive)	42.7 µM (inactive)	27.2 µM (inactive)	38.4 µM (inactive)		29.7 µM (inactive)	17 µM (inactive)	34.1 µM (inactive)	24.1 µM (inactive)	24.3 µM (inactive)	22.8 µM (inactive)	21 µM (inactive)	36.6 µM (inactive)	29.4 µM (inactive)		49.4 µM (inactive)	14.5 µM (inactive)	38.4 µM (inactive)	28.2 µM (inactive)
Cc1nn(-c2ccccc2)c2nc3c(c(C)nn3-c3ccccc3)c(-c3ccc(C(F)(F)F)cc3)c12	> 100 µM (inactive)	> 100 µM (inactive)	> 100 µM (inactive)	> 100 µM (inactive)	> 100 µM (inactive)	> 100 µM (inactive)	> 100 µM (inactive)	> 100 µM (inactive)	> 100 µM (inactive)		> 100 µM (inactive)	> 100 µM (inactive)	> 100 µM (inactive)	> 100 µM (inactive)	> 100 µM (inactive)		> 100 µM (inactive)	> 100 µM (inactive)		> 100 µM (inactive)
COc1cc2c(c(OC)c1OC)CCNC2C1=C(O)COC1=O (centres undefined)		> 100 µM (inactive)	> 100 µM (inactive)		> 100 µM (inactive)		> 100 µM (inactive)	> 100 µM (inactive)	> 100 µM (inactive)	> 100 µM (inactive)	88.3 µM (inactive)	> 100 µM (inactive)	> 100 µM (inactive)	> 100 µM (inactive)	92.9 µM (inactive)		> 100 µM (inactive)	> 100 µM (inactive)	> 100 µM (inactive)	> 100 µM (inactive)
NC1CC2NC3CCCCC3NC2CC1N (centres undefined)		26.8 µM (inactive)	42.7 µM (inactive)	32.4 µM (inactive)	35 µM (inactive)	61.7 µM (inactive)	41.8 µM (inactive)	23.7 µM (inactive)	28 µM (inactive)	29.2 µM (inactive)	37.5 µM (inactive)	24.9 µM (inactive)	24.9 µM (inactive)	33.7 µM (inactive)	29 µM (inactive)	27.9 µM (inactive)	24.1 µM (inactive)		55.2 µM (inactive)	26.7 µM (inactive)
Nc1nc(S)nc(C(=O)Nc2nccs2)c1-c1ccccc1		> 100 µM (inactive)	> 100 µM (inactive)	> 100 µM (inactive)	> 100 µM (inactive)		> 100 µM (inactive)	> 100 µM (inactive)	> 100 µM (inactive)	> 100 µM (inactive)	> 100 µM (inactive)	> 100 µM (inactive)	> 100 µM (inactive)	> 100 µM (inactive)	> 100 µM (inactive)		> 100 µM (inactive)	> 100 µM (inactive)	> 100 µM (inactive)	> 100 µM (inactive)
C=CSCCC(N)C(=O)O (centres undefined)		> 100 µM (inactive)	> 100 µM (inactive)	> 100 µM (inactive)	> 100 µM (inactive)		> 100 µM (inactive)	> 100 µM (inactive)	> 100 µM (inactive)	> 100 µM (inactive)		> 100 µM (inactive)	> 100 µM (inactive)	> 100 µM (inactive)	> 100 µM (inactive)		> 100 µM (inactive)	> 100 µM (inactive)	> 100 µM (inactive)	> 100 µM (inactive)
CCN1CN(c2ccccc2)C2(CCN(CCCSc3ccc(F)cc3)CC2)C1=O	3.26 µM (inactive)		5.19 µM (inactive)	10.4 µM (inactive)	12 µM (inactive)	12.7 µM (inactive)	12.7 µM (inactive)	12.9 µM (inactive)	> 10 µM (inactive)	11.8 µM (inactive)	10.1 µM (inactive)	4.88 µM (inactive)	4.7 µM (inactive)	14.3 µM (inactive)			7.29 µM (inactive)		5.3 µM (inactive)	10.8 µM (inactive)
COc1cc2c(oc(=O)c3c4oc([Si](C)(C)C)cc4cc(OC)c23)c2cccc(OCc3ccccc3)c12		31.4 µM (inactive)	> 70.3 µM (inactive)	16.3 µM (inactive)	21.4 µM (inactive)		37.2 µM (inactive)	> 33.5 µM (inactive)		37.7 µM (inactive)	28.4 µM (inactive)	> 71.9 µM (inactive)	51.4 µM (inactive)	> 64.3 µM (inactive)	53.7 µM (inactive)		68.9 µM (inactive)	34.8 µM (inactive)	50.5 µM (inactive)	43.3 µM (inactive)
O=C1c2ccccc2C(=O)N1C/C=N/NS(=O)(=O)c1ccc(Br)cc1		> 100 µM (inactive)	> 100 µM (inactive)	> 100 µM (inactive)	74.1 µM (inactive)		> 100 µM (inactive)		> 100 µM (inactive)	> 100 µM (inactive)	> 100 µM (inactive)	> 100 µM (inactive)	> 100 µM (inactive)	> 100 µM (inactive)	> 100 µM (inactive)		> 100 µM (inactive)	11 µM (inactive)	> 100 µM (inactive)	> 100 µM (inactive)
C=CCN(C)CN(C)c1nc(N(C)C)nc(N(C)C)n1		> 100 µM (inactive)	> 100 µM (inactive)	> 100 µM (inactive)	> 100 µM (inactive)		> 100 µM (inactive)		> 100 µM (inactive)	49.2 µM (inactive)	46.6 µM (inactive)	> 100 µM (inactive)	> 100 µM (inactive)	> 100 µM (inactive)	11.8 µM (inactive)		36.3 µM (inactive)	> 100 µM (inactive)	> 100 µM (inactive)	21.1 µM (inactive)
